{"source": "patent US6482858B1", "about": "“(−)-hydroxycitric acid for wound healing and immunomodulation” (priority 2001, dated 2002)", "key": {"[1]": {"test": "Single-subject trial of potassium HCA: skin health and psoriasis", "assay_type": "in vivo, human", "conditions": "middle-aged subject", "from_the_text": "The results in the above examples led us to question whether HCA might be useful as a supplement for individuals not in need of weight loss and not under obvious stress. To this end, a middle-aged subject ingested approximately 2 to 3 grams HCA in the form of the potassium salt twice daily for 10 days. They were instructed to report on effects other than those which were to be expected, i.e., effects other than appetite control. Two quite interesting findings typical of re-regulation of corticoid metabolism emerged from this crude trial. […] These effects were similar in kind, although greater in degree, than this subject had experienced in the past when experimenting with relatively large dosages of melatonin (5 to 20 mg taken at bedtime) and, when much younger, amino acid supplementation designed to improve growth hormone release. We interpreted this finding as indicative of the normalization of melatonin and growth hormone metabolism. None of the side effects typical of elevated melatonin supplementation, such as morning grogginess or nasal congestion, were noted. Second, this subject noticed an improvement in their psoriasis during the last few days of the trial. In this subject's past experience, supplements which tended to improve their overall immune response and skin tone—including melatonin—at the same time tended to worsen their psoriasis. Therefore, this subject's experience with HCA was in line with the reports in the published literature regarding the condition as representative of corticoid and circadian dysregulation."}, "cortisol receptors": {"target": "cortisol receptors (Homo sapiens, UniProt P04150)", "sequence (P04150 whole entry)": "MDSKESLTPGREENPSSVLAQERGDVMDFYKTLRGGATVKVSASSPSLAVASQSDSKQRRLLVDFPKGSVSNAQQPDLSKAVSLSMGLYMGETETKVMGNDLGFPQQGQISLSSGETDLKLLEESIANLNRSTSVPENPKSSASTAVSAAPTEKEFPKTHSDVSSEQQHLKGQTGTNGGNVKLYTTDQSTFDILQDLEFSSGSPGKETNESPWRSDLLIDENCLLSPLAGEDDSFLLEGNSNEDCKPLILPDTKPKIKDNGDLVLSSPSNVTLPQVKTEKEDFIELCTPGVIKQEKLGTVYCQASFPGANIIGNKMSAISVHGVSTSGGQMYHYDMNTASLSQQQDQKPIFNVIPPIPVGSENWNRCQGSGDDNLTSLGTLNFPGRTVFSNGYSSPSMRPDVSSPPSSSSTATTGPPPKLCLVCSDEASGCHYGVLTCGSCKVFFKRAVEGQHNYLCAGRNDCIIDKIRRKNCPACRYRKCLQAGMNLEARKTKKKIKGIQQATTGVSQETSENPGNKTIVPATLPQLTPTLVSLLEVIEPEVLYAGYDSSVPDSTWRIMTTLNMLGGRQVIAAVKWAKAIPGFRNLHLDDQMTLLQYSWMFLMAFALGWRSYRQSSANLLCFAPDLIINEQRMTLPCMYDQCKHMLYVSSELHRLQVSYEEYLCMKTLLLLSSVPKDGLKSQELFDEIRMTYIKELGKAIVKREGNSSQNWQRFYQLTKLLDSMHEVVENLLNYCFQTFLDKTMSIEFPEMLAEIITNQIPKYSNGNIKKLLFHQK", "conditions": "cited from earlier work"}, "[2]": {"conditions": "cited from earlier work; for % Body H2O / % Ash, wet / % Fat, wet / % Protein, wet: mean; for % Body H2O: 52.6 mmol/kg diet, six weeks; for % Ash, wet / % Fat, wet / % Protein, wet: wet weight"}}, "note": "Like-named read-outs stand apart in the source and are kept apart here.", "data": [{"smiles": "O=C(O)CC(O)(C(=O)O)C(O)C(=O)O", "note": "(single isomer, unassigned; (-)) [HCA, (−)-hydroxycitric acid]", "values": [{"measurement": "Side effects typical of elevated melatonin supplementation (morning grogginess, nasal congestion)", "setting": "[1]; 10 days", "value": "None"}, {"measurement": "Psoriasis", "setting": "[1]; approximately 2 to 3 grams twice daily for 10 days, last few days of the trial", "value": "improvement"}, {"measurement": "Skin tone", "setting": "[1]; approximately 2 to 3 grams twice daily, before the first week had passed", "value": "improved markedly"}]}, {"smiles": "CC#C[C@]1(O)CC[C@H]2[C@@H]3CCC4=CC(=O)CCC4=C3[C@@H](c3ccc(N(C)C)cc3)C[C@@]21C", "note": "[RU 486, mifepristone]", "values": [{"measurement": "Plasma ACTH and cortisol", "setting": "cortisol receptors; 10 mg/kg.day oral, 7-14 days", "value": "marked compensatory elevations"}, {"measurement": "Subjects who developed generalized exanthem (skin rash)", "setting": "cortisol receptors; 10 mg/kg.day oral, after 9 days of treatment", "value": "8 of the 11"}, {"measurement": "Enhancement of immune function", "setting": "cortisol receptors; high doses, normal volunteers, 7-14 days", "value": "does not result in measurable enhancement of immune function"}]}, {"smiles": "O=C([O-])CC(O)(C(=O)[O-])C(O)C(=O)[O-].[Na+].[Na+].[Na+]", "note": "(stereo not drawn) [Tri-NaHCA, trisodium (−)-hydroxycitrate]", "values": [{"measurement": "% Body H2O", "setting": "[2]; Zucker lean", "value": 64.3, "unit": "%"}, {"measurement": "% Ash, wet", "setting": "[2]; Zucker lean", "value": "4.9/NA %"}, {"measurement": "% Fat, wet", "setting": "[2]; Zucker lean", "value": "8.05/NA %"}, {"measurement": "% Protein, wet", "setting": "[2]; Zucker lean", "value": "22.0/NA %"}, {"measurement": "% Body H2O", "setting": "[2]; Zucker obese", "value": 25.8, "unit": "%"}, {"measurement": "% Ash, wet", "setting": "[2]; Zucker obese", "value": "2.6/NA %"}, {"measurement": "% Fat, wet", "setting": "[2]; Zucker obese", "value": "59.8/NA %"}, {"measurement": "% Protein, wet", "setting": "[2]; Zucker obese", "value": "11.8/NA %"}, {"measurement": "Carcass protein and ash/mineral content compared with control", "setting": "[2]; lean and obese animals", "value": "increased"}]}]}
